We go through 50 compounds from patent US9790169B2, “IDO inhibitors” (BRISTOL-MYERS SQUIBB COMPANY, priority 2015, dated 2017).

For the assay, the target named is human IDO1 (Homo sapiens, UniProt P14902). The experiment in a line: Assessment of human IDO-1 inhibitory activity in Hela cells (Interferon-gamma stimulated HeLa cells, Ehrlich reagent, absorbance 490 nm). The format is cell-based. More on the design: endogenous in cells; host or cells: HeLa cells stimulated with interferon-gamma. Conditions: Hela Human IDO-1 cellular assay. The gist of the method: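 IDO activity induced by 18 h IFN-γ (human 10 ng/ml or murine 5 ng/ml, final) after 1 h compound pre-treatment of HeLa cells at 37 °C. Supernatant kynurenine detected via Ehrlich reagent absorbance at 490 nm following 3% TCA at 50 °C; IC50 set against no-IFN-γ and untreated-stimulated controls.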

pIC50: −log10 of the molar value.

human IDO1, sequence (P14902 whole entry): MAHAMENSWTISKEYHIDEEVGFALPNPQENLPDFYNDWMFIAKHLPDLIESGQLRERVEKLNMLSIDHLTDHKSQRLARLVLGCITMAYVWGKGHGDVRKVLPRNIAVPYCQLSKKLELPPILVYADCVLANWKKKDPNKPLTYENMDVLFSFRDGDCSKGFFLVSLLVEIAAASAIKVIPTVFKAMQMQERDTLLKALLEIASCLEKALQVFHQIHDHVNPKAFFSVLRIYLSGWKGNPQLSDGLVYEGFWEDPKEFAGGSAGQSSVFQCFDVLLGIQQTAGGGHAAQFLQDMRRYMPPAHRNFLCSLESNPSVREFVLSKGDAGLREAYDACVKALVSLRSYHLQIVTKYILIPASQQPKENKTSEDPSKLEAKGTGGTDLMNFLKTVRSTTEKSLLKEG

Consider `CCC(CC(=O)O)c1ccc(N2C[C@@H]3C[C@H]2CN3C(=O)OC)c(Nc2ccc(C#N)cc2)c1` (single isomer, unassigned) [Example 449], for which the pIC50 (commonly −log10 of the IC50, conventionally taken in molar units) was > 7.30.
Take `CCC(CC(=O)O)c1ccc(N2C[C@@H]3C[C@H]2CN3CC(F)F)c(Nc2ccc(C#N)cc2)c1` (single isomer, unassigned) [Example 450]: the pIC50 is < 7.30.
Turning to `COCC(CC(=O)O)c1ccc(N2C[C@@H]3C[C@H]2CN3C(=O)OC(C)(C)C)c(Nc2ccc(C#N)cc2)c1` (single isomer, unassigned) [Example 451 Diastereomer 1], the pIC50 was > 7.30.
For `COCC(CC(=O)O)c1ccc(N2C[C@@H]3C[C@H]2CN3C(=O)OC(C)(C)C)c(Nc2ccc(C#N)cc2)c1` (single isomer, unassigned) [Example 451 Diastereomer 2] the value was < 7.30.
For `CC[C@@H](CC(=O)O)c1ccc(N(CC)C2CCOCC2)c(Nc2cnc(N(C)C)nc2)c1` (single isomer, unassigned) [Example 459] the value was > 7.30; for `CC[C@@H](CC(=O)O)c1ccc(N(CC)C2CCOCC2)c(Nc2ccc(C#N)cn2)c1` (single isomer, unassigned) [Example 461], > 8.30; for `CC[C@@H](CC(=O)O)c1ccc(N(CC)C2CCOCC2)c(Nc2ccc(OC)cn2)c1` (single isomer, unassigned) [Example 462], > 8.30.
As to `CC[C@@H](CC(=O)O)c1ccc(N(CC)C2CCOCC2)c(Nc2ccc(N(C)C)nc2)c1` (single isomer, unassigned) [Example 463], the pIC50 is < 7.30.
The figure for `CC[C@@H](CC(=O)O)c1ccc(N(CC)C2CCOCC2)c(Nc2cnc(OC)cn2)c1` (single isomer, unassigned) [Example 464] is > 8.30; for `CCOc1cnc(Nc2cc([C@@H](CC)CC(=O)O)ccc2N(CC)C2CCOCC2)cn1` (single isomer, unassigned) [Example 465] it is > 8.30; for `CCOc1ccc(Nc2cc([C@@H](CC)CC(=O)O)ccc2N(CC)C2CCOCC2)cn1` (single isomer, unassigned) [Example 466] it is > 8.30.
As for `CCOc1ccc(Nc2cc([C@@H](CC)CC(=O)O)ccc2N(CC)C2CCOCC2)nn1` (single isomer, unassigned) [Example 467], the negative-log IC50 (pIC50) was > 7.30.
Consider `CC[C@H](CC(=O)O)c1ccc(N(CC)C2CCOCC2)c(Nc2cnc(N(C)C)nc2)c1` (single isomer, unassigned) [Example 502], for which the pIC50 was > 7.30.
Regarding `CC[C@H](CC(=O)O)c1ccc(N(CC)C2CCOCC2)c(Nc2ccc(Cl)cn2)c1` (single isomer, unassigned) [Example 503], the pIC50 was > 8.30.
As to `CC[C@H](CC(=O)O)c1ccc(N(CC)C2CCOCC2)c(Nc2ccc(OC)cn2)c1` (single isomer, unassigned) [Example 505], the pIC50 was > 7.30.
As for `CC[C@H](CC(=O)O)c1ccc(N(CC)C2CCOCC2)c(Nc2ccc(N(C)C)nc2)c1` (single isomer, unassigned) [Example 506], the negative-log IC50 (pIC50) was < 7.30.
For the compound `CC[C@H](CC(=O)O)c1ccc(N(CC)C2CCOCC2)c(Nc2cnc(OC)cn2)c1` (single isomer, unassigned) [Example 507], the pIC50 was > 8.30.
The figure for `CCOc1cnc(Nc2cc([C@H](CC)CC(=O)O)ccc2N(CC)C2CCOCC2)cn1` (single isomer, unassigned) [Example 508] is > 8.30; for `CCOc1ccc(Nc2cc([C@H](CC)CC(=O)O)ccc2N(CC)C2CCOCC2)cn1` (single isomer, unassigned) [Example 509] it is > 8.30; for `CCOc1ccc(Nc2cc([C@H](CC)CC(=O)O)ccc2N(CC)C2CCOCC2)nn1` (single isomer, unassigned) [Example 510] it is > 8.30.
As for `CC[C@H](CC(=O)O)c1ccc(N(CC)C2CCOCC2)c(Nc2ccc(S(=O)(=O)CC)cc2)c1` (single isomer, unassigned) [Example 525], the pIC50 is > 7.30.
For the compound `CCCN(c1ccc([C@@H](CC)CC(=O)O)cc1Nc1ccc(OC)nc1)C1CCOCC1` (single isomer, unassigned) [Example 542], the pIC50 was > 8.30.
The figure for `CCCN(c1ccc([C@@H](CC)CC(=O)O)cc1NC(=O)Nc1ccc(Cl)cc1F)C1CCOCC1` (single isomer, unassigned) [Example 544] is > 8.30; for `CCCN(c1ccc([C@@H](CC)CC(=O)O)cc1NC(=O)Nc1ccc(C#N)cc1)C1CCOCC1` (single isomer, unassigned) [Example 545] it is > 7.30.
`CCCN(c1ccc([C@H](CC)CC(=O)O)cc1Nc1cnc(OCC)nc1)C1CCOCC1` (single isomer, unassigned) [Example 546]: the pIC50 is > 8.30.
As for `CCCN(c1ccc([C@H](CC)CC(=O)O)cc1Nc1ccc(C#N)cc1)C1CCOCC1` (single isomer, unassigned) [Example 547], the pIC50 is > 8.30.
The figure for `CCCN(c1ccc([C@H](CC)CC(=O)O)cc1Nc1ccc2nc(C)sc2c1)C1CCOCC1` (single isomer, unassigned) [Example 548] is > 7.30; for `CCCN(c1ccc([C@H](CC)CC(=O)O)cc1Nc1ccc(F)cc1)C1CCOCC1` (single isomer, unassigned) [Example 549] it is > 8.30.
On to `CCCN(c1ccc([C@H](CC)CC(=O)O)cc1Nc1ccc2c(c1)OC(F)(F)O2)C1CCOCC1` (single isomer, unassigned) [Example 550], for which the pIC50 is > 8.30.
Take `CCCN(c1ccc([C@H](CC)CC(=O)O)cc1Nc1cnc(OC)nc1)C1CCOCC1` (single isomer, unassigned) [Example 551]: the pIC50 is > 8.30.
For `CCCN(c1ccc([C@H](CC)CC(=O)O)cc1Nc1ccc(Cl)cc1)C1CCOCC1` (single isomer, unassigned) [Example 552] the value was > 8.30.
As for `CCCN(c1ccc([C@H](CC)CC(=O)O)cc1Nc1ccc(OC)nc1)C1CCOCC1` (single isomer, unassigned) [Example 553], the pIC50 was > 8.30.
As for `CCCN(c1ccc([C@H](CC)CC(=O)O)cc1Nc1cnc(OCC2CC2)nc1)C1CCOCC1` (single isomer, unassigned) [Example 554], the pIC50 is > 8.30.
For `CCCN(c1ccc([C@H](CC)CC(=O)O)cc1NC(=O)Nc1ccc(Cl)cc1F)C1CCOCC1` (single isomer, unassigned) [Example 555], the pIC50 is > 8.30.
The figure for `CCCN(c1ccc([C@H](CC)CC(=O)O)cc1NC(=O)Nc1ccc(C#N)cc1)C1CCOCC1` (single isomer, unassigned) [Example 556] is > 7.30; for `CCCN(c1ccc(C(CC)CC(=O)O)cc1NC(=O)Nc1ccc(C)cc1)C1CCOCC1` (single isomer, unassigned) [Example 557 Enantiomer 1, 3-(4-(Propyl(tetrahydro-2H-pyran-4-yl)amino)-3-(3-(p-tolyl)ureido)phenyl)pentanoic acid] it is > 7.30.
As to `CCCN(c1ccc(C(CC)CC(=O)O)cc1NC(=O)Nc1ccc(C)cc1)C1CCOCC1` (single isomer, unassigned) [Example 557 Enantiomer 2, 3-(4-(Propyl(tetrahydro-2H-pyran-4-yl)amino)-3-(3-(p-tolyl)ureido)phenyl)pentanoic acid], the pIC50 is > 8.30.
`CCCN(c1ccc([C@@H](COC)CC(=O)O)cc1Nc1ccc(C#N)cc1)C1CCOCC1` (single isomer, unassigned) [Example 558]: the pIC50 is > 8.30.
Regarding `CCCN(c1ccc([C@@H](COC)CC(=O)O)cc1Nc1cnc(OCC)nc1)C1CCOCC1` (single isomer, unassigned) [Example 559], the pIC50 was > 7.30.
Regarding `CCCN(c1ccc([C@@H](COC)CC(=O)O)cc1Nc1ccc(OC)nc1)C1CCOCC1` (single isomer, unassigned) [Example 565], the pIC50 is > 7.30.
As to `CCCN(c1ccc([C@@H](COC)CC(=O)O)cc1NC(=O)Nc1ccc(Cl)cc1F)C1CCOCC1` (single isomer, unassigned) [Example 566], the pIC50 was > 7.30.
With `CCCN(c1ccc([C@@H](COC)CC(=O)O)cc1NC(=O)Nc1ccc(C#N)cc1)C1CCOCC1` (single isomer, unassigned) [Example 567], the pIC50 is > 7.30.
As to `CCCN(c1ccc([C@H](COC)CC(=O)O)cc1Nc1ccc(C#N)cc1)C1CCOCC1` (single isomer, unassigned) [Example 568], the pIC50 is > 8.30.
On to `CCCN(c1ccc([C@H](COC)CC(=O)O)cc1Nc1ccc2nc(C)sc2c1)C1CCOCC1` (single isomer, unassigned) [Example 570], for which the pIC50 is > 7.30.
The figure for `CCCN(c1ccc(C(COC)CC(=O)O)cc1Nc1ccc2c(c1)OC(F)(F)O2)C1CCOCC1` (single isomer, unassigned) [Example 571, 3-(3-((2,2-difluorobenzo[d][1,3]dioxol-5-yl)amino)-4-(propyl (tetrahydro-2H-pyran-4-yl)amino)phenyl)-4-methoxybutanoic acid] is > 8.30; for `CCCN(c1ccc([C@H](COC)CC(=O)O)cc1Nc1ccc(F)cc1)C1CCOCC1` (single isomer, unassigned) [Example 572] it is > 7.30; for `CCCN(c1ccc([C@H](COC)CC(=O)O)cc1Nc1cnc(OCC2CC2)nc1)C1CCOCC1` (single isomer, unassigned) [Example 573] it is > 7.30.
Consider `CCCN(c1ccc([C@H](COC)CC(=O)O)cc1Nc1ccc(Cl)cc1)C1CCOCC1` (single isomer, unassigned) [Example 574], for which the pIC50 is > 8.30.
Consider `CCCN(c1ccc([C@H](COC)CC(=O)O)cc1Nc1ccc(OC)nc1)C1CCOCC1` (single isomer, unassigned) [Example 575], for which the pIC50 is > 7.30.
With `CCCN(c1ccc([C@H](COC)CC(=O)O)cc1NC(=O)Nc1ccc(Cl)cc1F)C1CCOCC1` (single isomer, unassigned) [Example 576], the pIC50 is > 7.30.
